According to patent publication US20230310438A1 (priority 2019, published 2023):
“Also recorded” adds a separate entry of the source.

System: whole blood of youth with OUD and healthy controls
Type: cell-based, human

| Molecule | induction of cytokines and chemokines such as IL-12p40, IL-6, CXCL8, CXCL10, CCL2 and TNF | Th-polarizing cytokine production |
| --- | --- | --- |
| monophosphoryl lipid A [MPLA] | reduced; also recorded: impaired | – |
| CCOCc1nc2c(N)nc3ccccc3c2n1CC(C)(C)O [Formula R848, resiquimod] | – | robust and balanced |
